This note sets out measurements from patent US8455461B2, “Compositions containing a synergic mixture of polyols and xyloglucanes as phytosanitary and bio-fertilising products” (Elicityl, priority 2007, dated 2013).

The structures appear in SMILES notation.

Assay [1] concerns Cabernet-Sauvignon vine plants. Description: Frost-resistance of young vine plants, Cabernet-Sauvignon (foliar spraying, cold stress, foliar necroses). The class given is in vivo. How it is done: (§1) Plants originating from different vine varieties: the Chardonnay and Cabernet-Sauvignon varieties are used. Each sample, composed of 5 to 21 plants, is treated by foliar spraying at different vegetative stages on the BBCH scale with a mixture containing the xyloglucan elicitor, heptasaccharide XFGol or heptamaloxyloglucan, in solution at variable doses combined or not combined with sorbitol; the spraying of 2.5 ml of solution per plant is carried out using a sprayer (deviation of +/−1%). After use of the elicitor, the plants were exposed to cold stress of variable intensity and duration. After exposure to the cold, the plants are placed in a climatic chamber at 20° C. with a 12-hour day/night alternation. The appearance of the leaves is observed 24 hours and 72 hours after removal from the cold. The effects of the cold are evaluated by observing the foliar necroses induced by frost and the plants are kept for several months in order to monitor their subsequent development. The results are expressed by the protection index c (%)=100−P; P, being the proportion of foliar necroses. The results are also expressed in gain: [formula]

For another assay, the system named is Chardonnay vine plants. Kind of assay: Frost-resistance of young vine plants, Chardonnay (foliar spraying, cold stress, foliar necroses). The class given is in vivo. The method, then: as §1

Regarding `CC1OC(OC2C(OC3C(OCC4OC(OC(C(O)CO)C(O)C(O)CO)C(O)C(O)C4OC4OC(COC5OCC(O)C(O)C5O)C(O)C(O)C4O)OCC(O)C3O)OC(CO)C(O)C2O)C(O)C(O)C1O` (stereo not drawn) [Elicitor, heptamaloxyloglucan], the Gain % in assay [1] (Cabernet-Sauvignon second series, 500 nM elicitor, vs dry control) came out at 200%; in the assay with Chardonnay vine plants (all physiological stages combined, 5 nM elicitor, vs dry control), 0%. For the same compound, the “If % average (protection index)” value in assay [1] (Cabernet-Sauvignon second series, all physiological stages combined, 500 nM elicitor) worked out at 60%; in the assay on Chardonnay vine plants (all physiological stages combined, 5 nM elicitor), 40%.

Consider `OC[C@@H](O)[C@@H](O)[C@H](O)[C@@H](O)CO` [sorbitol], for which the “effect of sorbitol on frost protection” value in assay [1] (Cabernet-Sauvignon, 0.1% sorbitol, when the elicitor itself has no effect) is listed as “without effect”; in the assay with Chardonnay vine plants (0.1% sorbitol, when the elicitor itself has no effect), “without effect”.
